# US20230272016A1, “PEPTIDES FOR IMMUNOTHERAPY” (Second Genome, Inc., priority 2020, published 2023)
# Tested on: human T cells
# Test: Human T cell activation assay (anti-CD3 plus peptide, cytokine secretion)
# Assay type: cell-based
# Procedure: FIGS. 11 and 12 show 150 peptide variants of the SG-3-0020 1-29 aa N-terminal+middle region, derived from a combinatorial phage display library, were tested for activation potential of human T cells. […] Increase in cytokine secretion was concordant in 3 donors.
# For example, PBMCs were obtained from individual human donors.
# T-cell activation was also determined as described previously (see above and International Application No. PCT/US2020/012431). […] Separate N-, MID, and C-terminal fragments lose activity. The data support that both N- and middle region are minimally required for binding and activation to T cells.
# [1] = Table 11, 150 combinatorial library variants of SEQ ID NO:1
# [2] = Table 10, combinatorial library variants of SEQ ID NO:1
substance,measurement,setting,value
FASAAKGKTHDHWGSGRYRPPPWHDWRGS [SEQ ID NO: 244],mean_ES_IFN-γ,[1],0.9882
FASAAKGKTHDHYPGGRMRPPPWHDWRFS [SEQ ID NO: 254],mean_ES_IFN-γ,[1],0.9426
FASAAKGKTHDHYPSGRYRPPPWHDWRAS [SEQ ID NO: 298],mean_ES_IFN-γ,[1],0.6625
FASAAKGKTHDHYWSGRYRPPPWHDWRAS [SEQ ID NO: 33],mean_ES_IFN-γ,[2],1.036
same,mean_ES_IFN-γ,[1],1.036
FASGAKGKTHDHNWGGRYRDPGWHDWRAS [SEQ ID NO: 281],mean_ES_IFN-γ,[1],0.7548
FASGAKGKTHDHYPSGRHRPPPWHDWRAS [SEQ ID NO: 316],mean_ES_IFN-γ,[1],0.5231
FGSAAKGKTHDHWPSGRHRDPGWHDWRFS [SEQ ID NO: 23],mean_ES_IFN-γ,[2],1.129
same,mean_ES_IFN-γ,[1],1.129
FGSAAKGKTHDHYWSGRMRPPPWHDWRGS [SEQ ID NO: 34],mean_ES_IFN-γ,[2],1.028
same,mean_ES_IFN-γ,[1],1.028
FGSGAKGKTHDHWGGGRHRPPPWHDWRGS [SEQ ID NO: 6],mean_ES_IFN-γ,[2],1.321
same,mean_ES_IFN-γ,[1],1.321
FGSGAKGKTHDHYPSGRMRPPPWHDWRVR [SEQ ID NO: 7],mean_ES_IFN-γ,[2],1.319
same,mean_ES_IFN-γ,[1],1.319
FLSAAKGKTHDHNWGGRMRPPPWHDWRFS [SEQ ID NO: 255],mean_ES_IFN-γ,[1],0.935
FLSGAKGKTHDHYPSGRYRPPPWHDWRAR [SEQ ID NO: 15],mean_ES_IFN-γ,[2],1.193
same,mean_ES_IFN-γ,[1],1.193
FPSGAKTKWHDHNPSGRMRDPPWHDWRFS [SEQ ID NO: 306],mean_ES_IFN-γ,[1],0.6024
FPSGAKTKWHDHNPSGRMRDPPWHDWRFSa [SEQ ID NO: 273],mean_ES_IFN-γ,[1],0.8203
FQSTAKGKTHDHWPSGRMRPPPWHDWRAS [SEQ ID NO: 267],mean_ES_IFN-γ,[1],0.8487
FSSAAKGKWHDHWPGGRYRDPPWHDWRVS [SEQ ID NO: 14],mean_ES_IFN-γ,[2],1.215
same,mean_ES_IFN-γ,[1],1.215
FSSAAKTKWHDHYGSGRYRPPPWHDWRFS [SEQ ID NO: 355],mean_ES_IFN-γ,[1],−0.4086
FVSAAKGKTHDHYPSGRYRPPPWHDWRAR [SEQ ID NO: 25],mean_ES_IFN-γ,[2],1.088
same,mean_ES_IFN-γ,[1],1.088
FVSGAKGKWHDHWPSGRWRDPPWHDWRAS [SEQ ID NO: 10],mean_ES_IFN-γ,[2],1.26
same,mean_ES_IFN-γ,[1],1.26
FVSTAKGKTHDHNWSGRMRPPPWHDWRGR [SEQ ID NO: 248],mean_ES_IFN-γ,[1],0.9668
MASAAKGKTHDHYPGGRMRPPPWHDWRAS [SEQ ID NO: 252],mean_ES_IFN-γ,[1],0.9483
MASAAKGKTHDHYPSGRMRPPPWHDWRFS [SEQ ID NO: 263],mean_ES_IFN-γ,[1],0.8848
MASAAKGKWHDHNPSGRHRDPGWHDWWGS [SEQ ID NO: 288],mean_ES_IFN-γ,[1],0.7207
MASAAKGKWHDHWGSGRHRPPPWHDWRVS [SEQ ID NO: 11],mean_ES_IFN-γ,[2],1.237
same,mean_ES_IFN-γ,[1],1.237
MASAAKTKWHDHYPSGRMRPPPWHDWRAR [SEQ ID NO: 27],mean_ES_IFN-γ,[2],1.075
same,mean_ES_IFN-γ,[1],1.075
MASGAKGKTHDHNWSGRMRPPPWHDWRGR [SEQ ID NO: 245],mean_ES_IFN-γ,[1],0.9801
MASGAKGKTHDHYPGGRMRPPPWHDWRAR [SEQ ID NO: 287],mean_ES_IFN-γ,[1],0.7208
MASGAKGKWHDHYGGGRMRDPGWHDWRFS [SEQ ID NO: 342],mean_ES_IFN-γ,[1],0.2325
MASTAKGKTHDHWPGGRMRPPPWHDWRGS [SEQ ID NO: 320],mean_ES_IFN-γ,[1],0.5063
MASTAKGKTHDHYGGGRMRPPPWHDWRVR [SEQ ID NO: 314],mean_ES_IFN-γ,[1],0.5458
MGSAAKGKTHDHYPSGRMRPPPWHDWRGS [SEQ ID NO: 349],mean_ES_IFN-γ,[1],−0.09755
MGSAAKGKWHDHNGSGRMRPPPWHDWRAR [SEQ ID NO: 279],mean_ES_IFN-γ,[1],0.7782
MGSAAKGKWHDHYGSGRMRPPPWHDWRVR [SEQ ID NO: 262],mean_ES_IFN-γ,[1],0.8865
MGSAAKGKWHDHYPGGRHRDPPWHDWRAS [SEQ ID NO: 319],mean_ES_IFN-γ,[1],0.5086
MGSAAKTKWHDHYGGGRMRPPPWHDWRAR [SEQ ID NO: 247],mean_ES_IFN-γ,[1],0.9744
MGSAAKTKWHDHYPGGRMRPPPWHDWRFS [SEQ ID NO: 337],mean_ES_IFN-γ,[1],0.2836
MGSGAKGKTHDHNWGGRHRDPGWHDWWVS [SEQ ID NO: 285],mean_ES_IFN-γ,[1],0.7319
MGSGAKGKTHDHWPSGRMRPPPWHDWRVS [SEQ ID NO: 268],mean_ES_IFN-γ,[1],0.8466
MGSGAKTKTHDHYPGGRYRPPPWHDWRVS [SEQ ID NO: 276],mean_ES_IFN-γ,[1],0.8105
MGSGAKTKWHDHWPSGRMRPPPWHDWRFS [SEQ ID NO: 284],mean_ES_IFN-γ,[1],0.7374
MLSAAKGKTHDHYPSGRYRPPPWHDWRAR [SEQ ID NO: 269],mean_ES_IFN-γ,[1],0.8464
MLSAAKTKTHDHWGSGRMRDPPWHDWRVS [SEQ ID NO: 351],mean_ES_IFN-γ,[1],−0.1331
MLSGAKGKTHDHYWGGRMRPPPWHDWRGS [SEQ ID NO: 22],mean_ES_IFN-γ,[2],1.134
same,mean_ES_IFN-γ,[1],1.134
MLSGAKTKTHDHNPSGRMRDPPWHDWRVR [SEQ ID NO: 293],mean_ES_IFN-γ,[1],0.7047
MLSTAKGKTHDHWGGGRMRPPPWHDWRFS [SEQ ID NO: 2],mean_ES_IFN-γ,[2],1.408
same,mean_ES_IFN-γ,[1],1.408
MLSTAKGKTHDHYGGGRMRPPPWHDWRFS [SEQ ID NO: 249],mean_ES_IFN-γ,[1],0.9561
MLSTAKGKTHDHYWGGRMRPPPWHDWRFS [SEQ ID NO: 292],mean_ES_IFN-γ,[1],0.7049
MPSAAKGKTHDHNGGGRMRPPPWHDWRFS [SEQ ID NO: 311],mean_ES_IFN-γ,[1],0.5631
MPSAAKGKTHDHYPSGRMRPPPWHDWRGR [SEQ ID NO: 333],mean_ES_IFN-γ,[1],0.3234
MPSAAKGKTHDHYWSGRMRPPPWHDWRVS [SEQ ID NO: 246],mean_ES_IFN-γ,[1],0.9753
MPSAAKGKWHDHYGSGRYRPPPWHDWRVR [SEQ ID NO: 326],mean_ES_IFN-γ,[1],0.43
MPSAAKGKWHDHYPGGRMRDPKWHDWRFS [SEQ ID NO: 8],mean_ES_IFN-γ,[2],1.282
same,mean_ES_IFN-γ,[1],1.282
MPSAAKGKWHDHYPSGRMRPPPWHDWRAR [SEQ ID NO: 12],mean_ES_IFN-γ,[2],1.216
same,mean_ES_IFN-γ,[1],1.216
MPSAAKTKWHDHNWSGRMRPPPWHDWRAR [SEQ ID NO: 270],mean_ES_IFN-γ,[1],0.8446
MPSAAKTKWHDHYPGGRMRPPPWHDWRGR [SEQ ID NO: 16],mean_ES_IFN-γ,[2],1.186
same,mean_ES_IFN-γ,[1],1.186
MPSAAKTKWHDHYPSGRMRPPPWHDWRGR [SEQ ID NO: 28],mean_ES_IFN-γ,[2],1.071
same,mean_ES_IFN-γ,[1],1.071
MPSGAKGKTHDHYGGGRMRPPPWHDWRFS [SEQ ID NO: 13],mean_ES_IFN-γ,[2],1.216
same,mean_ES_IFN-γ,[1],1.216
MPSGAKGKWHDHYGGGRMRDPGWHDWRGS [SEQ ID NO: 317],mean_ES_IFN-γ,[1],0.5191
MPSTAKGKWHDHNPSGRMRPPPWHDWRGR [SEQ ID NO: 277],mean_ES_IFN-γ,[1],0.7934
MSSAAKGKTHDHNWSGRYRPPPWHDWRVR [SEQ ID NO: 242],mean_ES_IFN-γ,[1],0.9993
MSSGAKGKWHDHNWGGRMRDPGWHDWWGS [SEQ ID NO: 301],mean_ES_IFN-γ,[1],0.6348
MSSGAKGKWHDHYGSGRHRPPPWHDWRVR [SEQ ID NO: 243],mean_ES_IFN-γ,[1],0.9926
MSSGAKGKWHDHYPSGRMRPPPWHDWRFS [SEQ ID NO: 3],mean_ES_IFN-γ,[2],1.384
same,mean_ES_IFN-γ,[1],1.384
MSSGAKTKTHDHYPSGRMRPPPWHDWRAR [SEQ ID NO: 303],mean_ES_IFN-γ,[1],0.6184
MVSAAKTKTHDHNGGGRMRPPPWHDWRFS [SEQ ID NO: 258],mean_ES_IFN-γ,[1],0.9135
MVSTAKGKTHDHYGGGRYRPPPWHDWRAR [SEQ ID NO: 266],mean_ES_IFN-γ,[1],0.8498
MVSTAKGKTHDHYGSGRYRPPPWHDWRGS [SEQ ID NO: 340],mean_ES_IFN-γ,[1],0.276
MVSTAKGKTHDHYPSGRYRPPPWHDWRFS [SEQ ID NO: 29],mean_ES_IFN-γ,[2],1.052
same,mean_ES_IFN-γ,[1],1.052
PASAAKGKTHDHWPSGRHRDPPWHDWRGS [SEQ ID NO: 353],mean_ES_IFN-γ,[1],−0.2788
PASAAKGKWHDHNPSGRMRDPPWHDWWGS [SEQ ID NO: 327],mean_ES_IFN-γ,[1],0.4162
PASGAKGKTHDHYPSGRWRDSGWHDWRFS [SEQ ID NO: 313],mean_ES_IFN-γ,[1],0.5536
PASGAKTKWHDHNPSGRHRDPPWHDWRVS [SEQ ID NO: 328],mean_ES_IFN-γ,[1],0.3967
PLSAAKGKWHDHYWSGRMRDPPWHDWRVS [SEQ ID NO: 260],mean_ES_IFN-γ,[1],0.8986
PLSAAKTKTHDHNWSGRYRPPPWHDWRAR [SEQ ID NO: 282],mean_ES_IFN-γ,[1],0.7514
PLSAAKTKWHDHYGGGRMRPPPWHDWRFS [SEQ ID NO: 265],mean_ES_IFN-γ,[1],0.8534
PSSAAKGKTHDHYPGGRYRDPGWHDWRGR [SEQ ID NO: 343],mean_ES_IFN-γ,[1],0.2141
PSSAAKGKTHDHYPGGRYRPPPWHDWRVS [SEQ ID NO: 264],mean_ES_IFN-γ,[1],0.8772
PTSAAKGKTHDHYPGGRYRDPPWHDWRAS [SEQ ID NO: 356],mean_ES_IFN-γ,[1],−0.5055
PVSAAKGKTHDHWPGGRMRDPPWHDWRAS [SEQ ID NO: 329],mean_ES_IFN-γ,[1],0.3768
PVSAAKGKWHDHNWSGRMRPPPWHDWRAR [SEQ ID NO: 18],mean_ES_IFN-γ,[2],1.169
same,mean_ES_IFN-γ,[1],1.169
PVSAAKGKWHDHYPSGRWRDPPWHDWRAS [SEQ ID NO: 321],mean_ES_IFN-γ,[1],0.4882
SASAAKGKTHDHWGGGRHRDPPWHDWRFS [SEQ ID NO: 341],mean_ES_IFN-γ,[1],0.2746
SPSGAKGKTHDHYPSGRMRPPPWHDWRFS [SEQ ID NO: 261],mean_ES_IFN-γ,[1],0.8871
SPSGAKTKWHDHNPGGRMRPPPWHDWRAR [SEQ ID NO: 324],mean_ES_IFN-γ,[1],0.4459
SSSGAKGKWHDHNPSGRWRDPGWHDWRVR [SEQ ID NO: 325],mean_ES_IFN-γ,[1],0.4435
SSSGAKGKWHDHYGGGRHRDPPWHDWRGS [SEQ ID NO: 344],mean_ES_IFN-γ,[1],0.1326
SVSAAKGKTHDHYPSGRWRDPPWHDWRAS [SEQ ID NO: 300],mean_ES_IFN-γ,[1],0.645
VGSAAKTKTHDHYGGGRMRPPPWHDWRFS [SEQ ID NO: 331],mean_ES_IFN-γ,[1],0.3468
VGSGAKGKTHDHNGSGRYRPPPWHDWRFS [SEQ ID NO: 299],mean_ES_IFN-γ,[1],0.6497
VHSAAKTKTHDHWGSGRMRDPPWHDWRGS [SEQ ID NO: 346],mean_ES_IFN-γ,[1],0.04292
